Source: ChEMBL document CHEMBL6078680, “Improving the Stability and Anti-Infective Activity of Sea Turtle AMPs Using Multiple Structural Modification Strategies” (J Med Chem, 2024)
The source made the active and inactive calls. The rule behind the calls is not given here. Positions of bridges follow the written chain, without caps; N, C: chain ends. Residues, ends and D or L forms follow the SMILES beside them.

Columns and labels:
[1] = Hemolytic activity at human Erythrocyte assessed as hemolysis at 100 microg/ml; type: toxicity, cell-based; details: erythrocytes, at 100 µg/mL, read-out: Activity
[2] = test system: Staphylococcus aureus; assay: Antibiofilm activity against Staphylococcus aureus CMCC 26003 assessed as biofilm eradication at 0.5 to 2 times MIC incubated for 24 hrs by crystal violet staining based analysis; type: functional
[3] = test system: Peritoneal macrophage; assay: Antiinflammatory activity in mouse Peritoneal macrophage cells assessed as inhibition of LPS-induced TNF-alpha production at 20 microg/ml incubated for 6 hrs by ELISA analysis; type: functional, cell-based; details: dose 20.0 µg/ml
[4] = target: Trypsin (Homo sapiens, UniProt P07477+P07478+P35030); assay: Stability of compound assessed as trypsin (unknown origin) mediated drug degradation […] measured at 24 hrs by RP-HPLC analysis; type: ADME, protein assay; details: read-out: Activity
[5] = test system: Staphylococcus aureus; assay: Antipersister-activity against Staphylococcus aureus CMCC 26003 assessed as elimination of persister cells at 50 times MIC preincubated adherent persistent cells with colistin incubation for 24 hrs; type: functional
[6] = test system: Acinetobacter baumannii; assay: Antibiofilm activity against Acinetobacter baumannii ATCC 19606 assessed as inhibition of biofilm formation at 0.5 times MIC incubated for 48 hrs by crystal violet staining based analysis; type: functional
[7] = test system: Staphylococcus aureus; assay: Antimicrobial activity against Staphylococcus aureus CMCC 26003 at 5 times MIC measured at 180 mins; type: functional, organism-based
[8] = test system: Peritoneal macrophage; assay: Antiinflammatory activity in mouse Peritoneal macrophage cells assessed as inhibition of LPS-induced IL-6 production at 20 microg/ml incubated for 6 hrs by ELISA analysis; type: functional, cell-based; details: dose 20.0 µg/ml
[9] = test system: HaCaT; assay: Cytotoxicity against human HaCaT cells assessed as survival rate at 100 microg/ml; type: functional; details: read-out: Survival
[10] = test system: Peritoneal macrophage; assay: Cytotoxicity against mouse Peritoneal macrophage cells assessed as survival rate at 100 microg/ml; type: functional; details: read-out: Survival
[11] = test system: Staphylococcus aureus; assay: Antimicrobial activity against Staphylococcus aureus CMCC 26003 measured at 8 hrs in presence of mouse serum; type: functional, organism-based
[12] = Acute toxicity in BALB/c mouse assessed as effect on BUN level at 10 mg/kg, iv measured for 24 hrs; type: organism-based; details: in vivo
[13] = test system: Escherichia coli; assay: Antimicrobial activity against Escherichia coli ATCC 25922 measured at 8 hrs in presence of mouse serum; type: functional, organism-based
[14] = test system: Salmonella enteritidis; assay: Antimicrobial activity against Salmonella enterica subsp. enterica serovar Enteritidis ATCC 14028 assessed as reduction in microbial growth incubated for 18 hrs by broth microdilution method; type: functional
[15] = test system: Staphylococcus aureus; assay: Antimicrobial activity against Staphylococcus aureus ATCC 43300 assessed as reduction in microbial growth incubated for 18 hrs by broth microdilution method; type: functional
[16] = test system: Staphylococcus aureus; assay: Antimicrobial activity against Staphylococcus aureus 08032706 assessed as reduction in microbial growth incubated for 18 hrs by broth microdilution method; type: functional
[17] = test system: Enterococcus faecalis; assay: Antimicrobial activity against Enterococcus faecalis ATCC 29217 assessed as reduction in microbial growth incubated for 18 hrs by broth microdilution method; type: functional
[18] = test system: Staphylococcus aureus; assay: Antimicrobial activity against Staphylococcus aureus CMCC 26003 at 5 times MIC by time kill assay; type: functional, organism-based; details: time 180.0 min
[19] = test system: Escherichia coli; assay: Antimicrobial activity against Escherichia coli CMCC44102 assessed as reduction in microbial growth incubated for 18 hrs by broth microdilution method; type: functional
[20] = test system: Acinetobacter baumannii; assay: Antimicrobial activity against Acinetobacter baumannii ATCC19606 assessed as reduction in microbial growth incubated for 18 hrs by broth microdilution method; type: functional
[21] = test system: Staphylococcus aureus; assay: Antimicrobial activity against Staphylococcus aureus CMCC 26003 assessed as reduction in microbial growth incubated for 18 hrs by broth microdilution method; type: functional
[22] = test system: Pseudomonas aeruginosa; assay: Antimicrobial activity against Pseudomonas aeruginosa CMCC10104 assessed as reduction in microbial growth incubated for 18 hrs by broth microdilution method; type: functional
[23] = test system: Enterococcus faecium; assay: Antimicrobial activity against Enterococcus faecium 34 assessed as reduction in microbial growth incubated for 18 hrs by broth microdilution method; type: functional
[24] = test system: Clostridium perfringens; assay: Antimicrobial activity against Clostridium perfringens ATCC 13124 assessed as reduction in microbial growth incubated for 18 hrs by broth microdilution method; type: functional
[25] = test system: Staphylococcus epidermidis; assay: Antimicrobial activity against Staphylococcus epidermidis assessed as reduction in microbial growth incubated for 18 hrs by broth microdilution method; type: functional
[26] = test system: Escherichia coli; assay: Antimicrobial activity against Escherichia coli ATCC 25922 assessed as reduction in microbial growth incubated for 18 hrs by broth microdilution method; type: functional

CC[C@@H](C)[C@@H](NC(=O)[C@@H](CCCNC(=N)N)NC(=O)[C@@H](CO)NC(=O)[C@@H](Cc1c[nH]cn1)NC(=O)[C@@H](CCCNC(=N)N)NC(=O)[C@@H](CC(C)C)NC(=O)[C@H](NC(=O)[C@@H](CCCNC(=N)N)NC(=O)CNC(=O)[C@@H](CC(C)C)NC(=O)[C@@H](CCC(N)=O)NC(=O)[C@@H](CCCCN)NC(=O)[C@@H](CCCNC(=N)N)NC(=O)[C@H](NC(=O)[C@@H](CCCCN)NC(=O)[C@@H](CCCCN)NC(=O)[C@H](N)Cc1ccccc1)C(C)C)C(C)C)C(=O)N[C@@H](C(=O)N[C@@H](C(=O)NCC(=O)NCC(=O)N[C@H](CCCNC(=N)N)C(=O)N[C@H](CCSC)C(=O)N[C@H](CCCNC(=N)N)C(=O)N[C@H](Cc1ccccc1)C(=O)O)C(C)C)[C@H](C)O
hemolysis at 100 microg/ml [1]: < 5%
Activity [2]: 20%
Activity [3]: Active
metabolised at 24 h [4]: < 60%
Activity [5]: 50%
inhibition (INH) [6]: 10%
Activity [7]: inactive
Activity [8]: Active

CC[C@H](C)[C@H](NC(=O)[C@H](CCCNC(=N)N)NC(=O)[C@H](CO)NC(=O)[C@H](Cc1c[nH]cn1)NC(=O)[C@H](CCCNC(=N)N)NC(=O)[C@@H]1CSSC[C@H](NC(=O)[C@H](CCCCN)NC(=O)[C@@H](N)Cc2ccccc2)C(=O)N[C@@H](CCCCN)C(=O)N[C@@H](C(C)C)C(=O)N[C@@H](CCCNC(=N)N)C(=O)N[C@@H](CCCCN)C(=O)N[C@@H](CCC(N)=O)C(=O)N[C@@H](CC(C)C)C(=O)NCC(=O)N[C@@H](CCCNC(=N)N)C(=O)N[C@@H](C(C)C)C(=O)N[C@@H](CC(C)C)C(=O)N1)C(=O)N[C@H](C(=O)N[C@H](C(=O)NCC(=O)NCC(=O)N[C@@H](CCCNC(=N)N)C(=O)N[C@@H](CCSC)C(=O)N[C@@H](CCCNC(=N)N)C(=O)N[C@@H](Cc1ccccc1)C(=O)O)C(C)C)[C@@H](C)O (H-FKCKVRKQLGRVLCRHSRITVGGRMRF-OH; disulfide 3-14)
viability at 100 µg/mL [9]: > 80%
hemolysis at 100 microg/ml [1]: < 5%
Activity [3]: Active
viability at 100 µg/mL [10]: > 80%
Activity [11]: inactive
Activity [7]: inactive
Activity [12]: Non-toxic
Activity [8]: Active

CC[C@H](C)[C@@H]1NC(=O)[C@H](CCCNC(=N)N)NC(=O)[C@H](CO)NC(=O)[C@@H](NC(=O)[C@H](Cc2c[nH]cn2)NC(=O)[C@H](CCCNC(=N)N)NC(=O)[C@H](CC(C)C)NC(=O)[C@@H](NC(=O)[C@H](CCCNC(=N)N)NC(=O)CNC(=O)[C@H](CC(C)C)NC(=O)[C@H](CCC(N)=O)NC(=O)[C@H](CCCCN)NC(=O)[C@H](CCCNC(=N)N)NC(=O)[C@@H](NC(=O)[C@H](CCCCN)NC(=O)[C@H](CCCCN)NC(=O)[C@@H](N)Cc2ccccc2)C(C)C)C(C)C)CSSC[C@@H](C(=O)O)NC(=O)[C@H](Cc2ccccc2)NC(=O)[C@H](CCCNC(=N)N)NC(=O)[C@H](CCSC)NC(=O)[C@H](CCCNC(=N)N)NC(=O)CNC(=O)CNC(=O)[C@H](C(C)C)NC(=O)[C@H]([C@@H](C)O)NC1=O (H-FKKVRKQLGRVLRHCSRITVGGRMRFC-OH; disulfide 15-27)
viability at 100 µg/mL [9]: > 80%
hemolysis at 100 microg/ml [1]: < 5%
Activity [13]: inactive
Activity [3]: Active
viability at 100 µg/mL [10]: > 80%
Activity [11]: inactive
Activity [7]: inactive
Activity [8]: Active

CC1(C)S[C@@H]2[C@H](NC(=O)[C@H](N)c3ccccc3)C(=O)N2[C@H]1C(=O)O [AMPICILLIN]
MIC [14]: 1.17 µg/mL
MIC [15]: 9.38 µg/mL
MIC [16]: < 0.78 µg/mL
MIC [17]: < 0.78 µg/mL
AC30 [18]: Active
MIC [19]: 2.34 µg/mL
MIC [20]: > 100 µg/mL
MIC [21]: < 0.78 µg/mL
MIC [22]: > 100 µg/mL
MIC [23]: < 0.78 µg/mL
MIC [24]: 2.34 µg/mL
MIC [25]: 2.34 µg/mL
MIC [26]: 2.34 µg/mL
